Legend:
[1] = molecular target: T1, HiBit-BRG1 fusion protein in stable HeLa cell line expressing HiBit-BRG1 and LgBit (Homo sapiens, UniProt P51532); assay: HiBiT-BRG1 cell-based degradation assay (Nano-Glo HiBiT, 24 h); conditions: HeLa HiBit-BRG1/LgBit cells; for Dmax / BRG1 HiBit Degradation Maximum (%): top dose 30 μM; for Dmax: read-out: BRG1 HiBit Degradation Maximum (%); for DC50: read-out: BRMG1 HiBit Degradation IC50
T1 construct: expressed in transfected cells
In short: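 Degradation calculated from NanoBiT luminescence relative to DMSO-treated cells (high) and cells given 2 μM known BRM/BRG1 degrader (low). HeLa cells stably expressing HiBiT-BRG1 plus LgBiT were exposed to compound for 24 h before lytic HiBiT detection.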

[2] = molecular target: T2, HiBiT-BRM fusion protein in stable HeLa cell line (Homo sapiens, UniProt P51531); assay: HiBiT-BRM cell-based degradation assay (Nano-Glo HiBiT Lytic Detection, 24 h); design: DC50: scale not given here; conditions: HeLa HiBiT-BRM cells; for DC50: read-out: BRM HiBit Degradation IC50; for BRM HiBit Degradation Maximum (%): top dose 30 μM
T2 construct: expressed in transfected cells
T2 sequence (P51531 whole entry, the tested form may be a part): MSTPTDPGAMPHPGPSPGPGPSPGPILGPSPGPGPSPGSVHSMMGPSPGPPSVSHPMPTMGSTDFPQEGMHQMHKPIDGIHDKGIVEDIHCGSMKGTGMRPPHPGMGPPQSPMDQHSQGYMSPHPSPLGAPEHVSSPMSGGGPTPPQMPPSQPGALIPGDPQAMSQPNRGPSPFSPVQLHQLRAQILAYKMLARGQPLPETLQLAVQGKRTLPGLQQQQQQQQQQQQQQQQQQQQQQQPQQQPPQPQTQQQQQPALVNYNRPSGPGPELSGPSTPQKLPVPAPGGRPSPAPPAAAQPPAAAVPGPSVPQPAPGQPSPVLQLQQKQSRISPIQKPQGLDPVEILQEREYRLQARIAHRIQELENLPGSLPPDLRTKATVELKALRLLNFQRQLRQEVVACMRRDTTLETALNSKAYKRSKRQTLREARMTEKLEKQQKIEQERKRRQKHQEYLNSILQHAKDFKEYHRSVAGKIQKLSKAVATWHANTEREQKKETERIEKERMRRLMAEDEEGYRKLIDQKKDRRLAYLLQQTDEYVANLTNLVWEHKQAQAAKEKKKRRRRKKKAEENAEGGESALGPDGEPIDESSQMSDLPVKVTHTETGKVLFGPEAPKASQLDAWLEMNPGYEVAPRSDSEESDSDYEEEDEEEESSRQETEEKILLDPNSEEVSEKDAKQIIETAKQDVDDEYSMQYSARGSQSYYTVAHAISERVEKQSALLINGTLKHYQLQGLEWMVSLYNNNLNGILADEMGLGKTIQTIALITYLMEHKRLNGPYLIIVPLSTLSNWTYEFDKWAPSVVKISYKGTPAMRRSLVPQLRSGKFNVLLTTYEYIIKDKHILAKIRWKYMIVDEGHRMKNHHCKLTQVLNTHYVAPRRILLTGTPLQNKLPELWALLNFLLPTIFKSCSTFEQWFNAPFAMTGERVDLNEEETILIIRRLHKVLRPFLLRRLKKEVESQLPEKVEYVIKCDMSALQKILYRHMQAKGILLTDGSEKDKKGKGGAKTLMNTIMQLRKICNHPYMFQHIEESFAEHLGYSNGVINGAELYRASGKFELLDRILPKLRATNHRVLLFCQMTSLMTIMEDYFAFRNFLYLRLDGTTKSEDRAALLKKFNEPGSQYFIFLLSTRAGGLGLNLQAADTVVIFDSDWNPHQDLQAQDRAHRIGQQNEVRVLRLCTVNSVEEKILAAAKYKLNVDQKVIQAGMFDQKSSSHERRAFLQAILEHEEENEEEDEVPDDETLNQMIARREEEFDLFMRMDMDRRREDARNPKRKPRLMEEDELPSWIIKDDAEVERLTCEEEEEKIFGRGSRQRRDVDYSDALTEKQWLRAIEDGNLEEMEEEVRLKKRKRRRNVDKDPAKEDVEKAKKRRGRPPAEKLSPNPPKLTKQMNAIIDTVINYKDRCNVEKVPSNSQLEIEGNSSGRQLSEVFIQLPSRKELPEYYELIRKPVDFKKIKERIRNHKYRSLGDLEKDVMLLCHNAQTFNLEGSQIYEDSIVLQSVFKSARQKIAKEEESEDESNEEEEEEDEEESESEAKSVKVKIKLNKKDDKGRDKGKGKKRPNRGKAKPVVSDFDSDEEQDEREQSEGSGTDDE
In short: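 Percent degradation was scaled between DMSO-treated cells and cells given 2 μM of a known BRM/BRG1 degrader. Readout was NanoBiT luminescence after lytic detection. HeLa cells stably expressing HiBiT-BRM were dosed for 24 h, 10 points, 3-fold steps from 30 μM final, in duplicate.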

T1 sequence (P51532 whole entry, the tested form may be a part): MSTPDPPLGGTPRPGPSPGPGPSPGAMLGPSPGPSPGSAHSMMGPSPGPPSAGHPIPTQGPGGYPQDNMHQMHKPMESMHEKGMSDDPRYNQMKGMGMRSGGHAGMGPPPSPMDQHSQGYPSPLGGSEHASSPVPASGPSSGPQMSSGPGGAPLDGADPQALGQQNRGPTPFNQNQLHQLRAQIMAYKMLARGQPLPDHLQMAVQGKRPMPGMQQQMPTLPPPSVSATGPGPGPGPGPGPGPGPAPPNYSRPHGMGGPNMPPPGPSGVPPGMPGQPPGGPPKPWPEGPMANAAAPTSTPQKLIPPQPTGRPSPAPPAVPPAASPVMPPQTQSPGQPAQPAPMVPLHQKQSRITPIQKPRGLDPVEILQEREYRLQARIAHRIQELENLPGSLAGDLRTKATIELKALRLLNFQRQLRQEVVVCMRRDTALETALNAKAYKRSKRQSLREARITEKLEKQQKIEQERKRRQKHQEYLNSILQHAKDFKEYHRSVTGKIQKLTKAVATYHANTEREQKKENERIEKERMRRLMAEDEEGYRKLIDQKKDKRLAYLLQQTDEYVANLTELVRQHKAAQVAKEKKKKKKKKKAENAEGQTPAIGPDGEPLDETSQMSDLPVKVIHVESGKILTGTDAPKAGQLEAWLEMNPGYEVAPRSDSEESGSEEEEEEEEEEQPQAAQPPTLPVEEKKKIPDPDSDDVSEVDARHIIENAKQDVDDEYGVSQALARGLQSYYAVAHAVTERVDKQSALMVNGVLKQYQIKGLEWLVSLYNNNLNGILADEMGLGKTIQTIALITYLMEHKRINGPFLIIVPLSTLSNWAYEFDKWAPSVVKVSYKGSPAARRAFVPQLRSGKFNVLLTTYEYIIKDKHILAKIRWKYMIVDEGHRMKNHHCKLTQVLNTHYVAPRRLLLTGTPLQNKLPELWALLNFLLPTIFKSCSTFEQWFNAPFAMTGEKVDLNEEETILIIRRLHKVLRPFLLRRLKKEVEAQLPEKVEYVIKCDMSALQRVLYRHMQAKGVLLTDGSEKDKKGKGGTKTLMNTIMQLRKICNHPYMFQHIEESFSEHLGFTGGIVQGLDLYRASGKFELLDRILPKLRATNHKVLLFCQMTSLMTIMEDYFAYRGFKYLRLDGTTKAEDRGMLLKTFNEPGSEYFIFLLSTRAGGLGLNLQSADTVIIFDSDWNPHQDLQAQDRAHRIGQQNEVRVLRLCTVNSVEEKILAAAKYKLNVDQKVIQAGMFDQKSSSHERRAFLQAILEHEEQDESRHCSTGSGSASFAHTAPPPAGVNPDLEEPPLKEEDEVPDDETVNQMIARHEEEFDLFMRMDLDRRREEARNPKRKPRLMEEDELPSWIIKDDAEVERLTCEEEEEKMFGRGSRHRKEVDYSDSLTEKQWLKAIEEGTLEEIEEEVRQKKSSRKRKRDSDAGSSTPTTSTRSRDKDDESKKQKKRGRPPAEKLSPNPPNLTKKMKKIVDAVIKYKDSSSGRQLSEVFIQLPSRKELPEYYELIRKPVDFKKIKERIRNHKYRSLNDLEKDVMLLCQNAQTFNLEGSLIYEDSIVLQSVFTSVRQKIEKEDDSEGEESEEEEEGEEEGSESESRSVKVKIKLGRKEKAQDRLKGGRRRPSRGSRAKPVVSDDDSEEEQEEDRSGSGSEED

Compound	Dmax [1]	DC50 [2]	BRM HiBit Degradation Maximum (%) [2]	DC50 [1]	BRG1 HiBit Degradation Maximum (%) [1]
Cc1ncsc1-c1ccc([C@H](C)NC(=O)[C@@H]2C[C@@H](O)CN2C(=O)[C@@H](c2cc(-c3cnc(N4CCN(c5ccc6cc(-c7ccccc7O)nnc6c5)CC4)nc3)no2)C(C)C)cc1 [Compound 40]	< 50%	< 10 nM	A (“A” indicates maximum degradation ≥75%)		
Cc1ncsc1-c1ccc([C@H](C)NC(=O)[C@@H]2C[C@@H](O)CN2C(=O)[C@H](c2cc(-c3cnc(N4CCC(c5ccc6nnc(-c7ccccc7O)cc6c5)CC4)nc3)no2)C(C)C)cc1 [Compound 41]	< 50%		C (“C” indicates maximum degradation <50%)		
Cc1ncsc1-c1ccc([C@H](C)NC(=O)[C@@H]2C[C@@H](O)CN2C(=O)[C@@H](c2cc(-c3cnc(N4CCC(c5ccc6nnc(-c7ccccc7O)cc6c5)CC4)nc3)no2)C(C)C)cc1 [Compound 42]	< 50%	> 10 nM	A (“A” indicates maximum degradation ≥75%)		
Cc1ncsc1-c1ccc([C@H](C)NC(=O)[C@@H]2C[C@@H](O)CN2C(=O)[C@H](c2cc(-c3cnc(N4CC(c5ccc6nnc(-c7ccccc7O)cc6c5Cl)C4)nc3)no2)C(C)C)cc1 [Compound 43]	< 50%	> 100 nM	A (“A” indicates maximum degradation ≥75%)		
Cc1ncsc1-c1ccc([C@H](C)NC(=O)[C@@H]2C[C@@H](O)CN2C(=O)[C@@H](c2cc(-c3cnc(N4CC(c5ccc6nnc(-c7ccccc7O)cc6c5Cl)C4)nc3)no2)C(C)C)cc1 [Compound 44]	< 50%	> 10 nM	A (“A” indicates maximum degradation ≥75%)		
Cc1ncsc1-c1ccc([C@H](C)NC(=O)[C@@H]2C[C@@H](O)CN2C(=O)[C@@H](c2cc(N3CCC(C(=O)N4CC(c5ccc6cc(-c7ccccc7O)nnc6c5)C4)CC3)no2)C(C)C)cc1 [Compound 45]	> 75%	< 10 nM	A (“A” indicates maximum degradation ≥75%)	> 10 nM	
Cc1ncsc1-c1ccc([C@H](C)NC(=O)[C@@H]2C[C@@H](O)CN2C(=O)[C@H](c2cc(-c3cnc(N4CCN(c5ccc6cc(-c7ccccc7O)nnc6c5)CC4)nc3)no2)C(C)C)cc1 [Compound 46]		> 100 nM	A (“A” indicates maximum degradation ≥75%)		C (“C” indicates maximum degradation <50%)
Cc1ncsc1-c1ccc([C@H](C)NC(=O)[C@@H]2C[C@@H](O)CN2C(=O)[C@@H](c2cc(-c3cnc(N4CCN(c5ccc6cc(-c7ccccc7O)nnc6c5)CC4)nc3)no2)C(C)C)cc1 [Compound 47]			A (“A” indicates maximum degradation ≥75%)		C (“C” indicates maximum degradation <50%)
Cc1ncsc1-c1ccc([C@H](C)NC(=O)[C@@H]2C[C@@H](O)CN2C(=O)[C@@H](c2cc(N3CC4(CC(c5ccc6nnc(-c7ccccc7O)cc6c5)C4)C3)no2)C(C)C)cc1 [Compound 48, (2S,4R)-4-hydroxy-1-((R)-2-(3-(6-(3-(2-hydroxyphenyl)cinnolin-6-yl)-2-azaspiro[3.3]heptan-2-yl)isoxazol-5-yl)-3-methylbutanoyl)-N-((S)-1-(4-(4-methylthiazol-5-yl)phenyl)ethyl)pyrrolidine-2-carboxamide]	> 75%	< 10 nM	A (“A” indicates maximum degradation ≥75%)	< 10 nM	
Cc1ncsc1-c1ccc([C@H](C)NC(=O)[C@@H]2C[C@@H](O)CN2C(=O)[C@@H](c2cc(-c3cnc(N4CC[C@H](c5ccc6nnc(-c7ccccc7O)cc6c5)C4)nc3)no2)C(C)C)cc1 [Compound 49, (2S,4R)-4-hydroxy-1-((R)-2-(3-(2-((R)-3-(3-(2-hydroxyphenyl)cinnolin-6-yl)pyrrolidin-1-yl)pyrimidin-5-yl)isoxazol-5-yl)-3-methylbutanoyl)-N-((S)-1-(4-(4-methylthiazol-5-yl)phenyl)ethyl)pyrrolidine-2-carboxamide]	> 75%	< 10 nM	A (“A” indicates maximum degradation ≥75%)	< 10 nM	
Cc1ncsc1-c1ccc([C@H](C)NC(=O)[C@@H]2C[C@@H](O)CN2C(=O)[C@@H](c2cc(-c3cnc(N4CC[C@@H](c5ccc6nnc(-c7ccccc7O)cc6c5)C4)nc3)no2)C(C)C)cc1 [Compound 50, (2S,4R)-4-hydroxy-1-((R)-2-(3-(2-((S)-3-(3-(2-hydroxyphenyl)cinnolin-6-yl)pyrrolidin-1-yl)pyrimidin-5-yl)isoxazol-5-yl)-3-methylbutanoyl)-N-((S)-1-(4-(4-methylthiazol-5-yl)phenyl)ethyl)pyrrolidine-2-carboxamide]	> 50%	< 10 nM	A (“A” indicates maximum degradation ≥75%)		
Cc1ncsc1-c1ccc([C@H](C)NC(=O)[C@@H]2C[C@@H](O)CN2C(=O)[C@@H](c2cc(-c3ccnc(N4CCC(c5ccc6cc(-c7ccccc7O)nnc6c5)CC4)n3)no2)C(C)C)cc1 [Compound 52, (2S,4R)-4-hydroxy-1-((R)-2-(3-(2-(4-(3-(2-hydroxyphenyl)cinnolin-7-yl)piperidin-1-yl)pyrimidin-4-yl)isoxazol-5-yl)-3-methylbutanoyl)-N-((S)-1-(4-(4-methylthiazol-5-yl)phenyl)ethyl)pyrrolidine-2-carboxamide]	> 75%	< 10 nM	A (“A” indicates maximum degradation ≥75%)	> 10 nM	
Cc1ncsc1-c1ccc([C@H](C)NC(=O)[C@@H]2C[C@@H](O)CN2C(=O)[C@@H](c2cc(N3CCC4(CC3)CN(c3ccc5cc(-c6ccccc6O)nnc5c3)C4)no2)C(C)C)cc1 [Compound 53, (2S,4R)-4-hydroxy-1-((R)-2-(3-(2-(3-(2-hydroxyphenyl)cinnolin-7-yl)-2,7-diazaspiro[3.5]nonan-7-yl)isoxazol-5-yl)-3-methylbutanoyl)-N-((S)-1-(4-(4-methylthiazol-5-yl)phenyl)ethyl)pyrrolidine-2-carboxamide]	> 50%	< 10 nM	A (“A” indicates maximum degradation ≥75%)	> 10 nM	
Cc1ncsc1-c1ccc([C@H](C)NC(=O)[C@@H]2C[C@@H](O)CN2C(=O)[C@@H](c2cc(N3CCN(c4ccc5cc(-c6ccccc6O)nnc5c4)CC3)no2)C(C)C)cc1 [Compound 54, (2S,4R)-4-hydroxy-1-((R)-2-(3-(4-(3-(2-hydroxyphenyl)cinnolin-7-yl)piperazin-1-yl)isoxazol-5-yl)-3-methylbutanoyl)-N-((S)-1-(4-(4-methylthiazol-5-yl)phenyl)ethyl)pyrrolidine-2-carboxamide]	< 50%	> 10 nM	B (“B” indicates maximum degradation ≥50%)		
Cc1ncsc1-c1ccc([C@H](C)NC(=O)[C@@H]2C[C@@H](O)CN2C(=O)[C@@H](c2cc(N3CC[C@H](c4ccc5nnc(-c6ccccc6O)cc5c4)C3)no2)C(C)C)cc1 [Compound 55, (2S,4R)-4-hydroxy-1-((R)-2-(3-((R)-3-(3-(2-hydroxyphenyl)cinnolin-6-yl)pyrrolidin-1-yl)isoxazol-5-yl)-3-methylbutanoyl)-N-((S)-1-(4-(4-methylthiazol-5-yl)phenyl)ethyl)pyrrolidine-2-carboxamide]	< 50%	> 10 nM	B (“B” indicates maximum degradation ≥50%)		
Cc1ncsc1-c1ccc([C@H](C)NC(=O)[C@@H]2C[C@@H](O)CN2C(=O)[C@@H](c2cc(-c3cnc(N4CCC5(CC4)CC(c4ccc6nnc(-c7ccccc7O)cc6c4)C5)nc3)no2)C(C)C)cc1 [Compound 56, (2S,4R)-4-hydroxy-1-((R)-2-(3-(2-(2-(3-(2-hydroxyphenyl)cinnolin-6-yl)-7-azaspiro[3.5]nonan-7-yl)pyrimidin-5-yl)isoxazol-5-yl)-3-methylbutanoyl)-N-((S)-1-(4-(4-methylthiazol-5-yl)phenyl)ethyl)pyrrolidine-2-carboxamide]	> 75%	< 10 nM	A (“A” indicates maximum degradation ≥75%)	< 10 nM	
Cc1ncsc1-c1ccc([C@H](C)NC(=O)[C@@H]2C[C@@H](O)CN2C(=O)[C@@H](c2cc(N3CCN(c4ccc5nnc(-c6ccccc6O)cc5c4)CC3)no2)C(C)C)cc1 [Compound 57, (2S,4R)-4-hydroxy-1-((R)-2-(3-(4-(3-(2-hydroxyphenyl)cinnolin-6-yl)piperazin-1-yl)isoxazol-5-yl)-3-methylbutanoyl)-N-((S)-1-(4-(4-methylthiazol-5-yl)phenyl)ethyl)pyrrolidine-2-carboxamide]	> 75%	< 10 nM	A (“A” indicates maximum degradation ≥75%)	> 10 nM	
Cc1ncsc1-c1ccc([C@H](C)NC(=O)[C@@H]2C[C@@H](O)CN2C(=O)[C@@H](c2cc(N3CC[C@@H](c4ccc5cc(-c6ccccc6O)nnc5c4)C3)no2)C(C)C)cc1 [Compound 58, (2S,4R)-4-hydroxy-1-((R)-2-(3-((S)-3-(3-(2-hydroxyphenyl)cinnolin-7-yl)pyrrolidin-1-yl)isoxazol-5-yl)-3-methylbutanoyl)-N-((S)-1-(4-(4-methylthiazol-5-yl)phenyl)ethyl)pyrrolidine-2-carboxamide]	< 50%	< 10 nM	A (“A” indicates maximum degradation ≥75%)		

Source: patent US20260193264A1, “BENZOYPARAZINE PYRAZINES AND THEIR USES” (FOGHORN THERAPEUTICS INC., priority 2022, published 2026)
